Laboratory results as given in PMC7413254 (Nature Communications, 2020).

Molecular target: T1, PfNT1 (Plasmodium falciparum, UniProt Q8IDM6)
T1 construct: expressed in transfected cells; host or cells: Xenopus laevis oocytes (stage V-VI), cRNA-injected
Assay: [3H]CQ uptake into Xenopus oocytes (ion and membrane-potential dependence, Supplementary Fig. 2)
Type: cell-based

T1 sequence (Q8IDM6 whole entry): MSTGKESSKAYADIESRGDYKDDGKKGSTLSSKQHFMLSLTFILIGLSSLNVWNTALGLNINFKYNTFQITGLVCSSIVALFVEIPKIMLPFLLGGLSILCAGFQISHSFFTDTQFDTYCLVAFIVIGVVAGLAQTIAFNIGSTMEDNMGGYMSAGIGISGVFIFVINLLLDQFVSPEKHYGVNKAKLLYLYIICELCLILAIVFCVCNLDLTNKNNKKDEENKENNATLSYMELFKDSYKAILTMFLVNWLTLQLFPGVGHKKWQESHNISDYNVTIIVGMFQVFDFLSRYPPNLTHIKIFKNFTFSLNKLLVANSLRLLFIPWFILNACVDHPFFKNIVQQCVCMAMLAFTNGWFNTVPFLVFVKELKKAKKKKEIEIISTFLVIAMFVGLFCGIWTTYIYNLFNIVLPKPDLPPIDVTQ

CCN(CC)CCCC(C)Nc1ccnc2cc(Cl)ccc12 (stereo not drawn) [CQ, chloroquine, reference compound]
[3H]CQ transport, PfNT1 (0 mM Ca2+, Experiment 1): 3.03 % PfCRTDd2 control | [3H]CQ transport, PfNT1 (0 mM Ca2+, Experiment 2): 3.55 % PfCRTDd2 control | [3H]CQ transport, PfNT1 (0 mM Ca2+, Experiment 3): 3.65 % PfCRTDd2 control | [3H]CQ transport, PfNT1 (0 mM Ca2+, Experiment 4): 3.28 % PfCRTDd2 control | [3H]CQ transport, PfNT1 (0 mM Cl-, Experiment 1): 3.68 % PfCRTDd2 control | [3H]CQ transport, PfNT1 (0 mM Cl-, Experiment 2): 3.72 % PfCRTDd2 control | [3H]CQ transport, PfNT1 (0 mM Cl-, Experiment 3): 4.16 % PfCRTDd2 control | [3H]CQ transport, PfNT1 (0 mM Cl-, Experiment 4): 3.75 % PfCRTDd2 control | [3H]CQ transport, PfNT1 (0 mM Na+, Experiment 1): 3.67 % PfCRTDd2 control | [3H]CQ transport, PfNT1 (0 mM Na+, Experiment 2): 3.32 % PfCRTDd2 control | [3H]CQ transport, PfNT1 (0 mM Na+, Experiment 3): 3.62 % PfCRTDd2 control | [3H]CQ transport, PfNT1 (0 mM Na+, Experiment 4): 3.15 % PfCRTDd2 control | [3H]CQ transport, PfNT1 (1 mM Ca2+, Experiment 1): 4.25 % PfCRTDd2 control | [3H]CQ transport, PfNT1 (1 mM Ca2+, Experiment 2): 3.56 % PfCRTDd2 control | [3H]CQ transport, PfNT1 (1 mM Ca2+, Experiment 3): 3.56 % PfCRTDd2 control | [3H]CQ transport, PfNT1 (1 mM Ca2+, Experiment 4): 4.24 % PfCRTDd2 control | [3H]CQ transport, PfNT1 (3 mM Ca2+, Experiment 1): 3.29 % PfCRTDd2 control | [3H]CQ transport, PfNT1 (3 mM Ca2+, Experiment 2): 3.28 % PfCRTDd2 control | [3H]CQ transport, PfNT1 (3 mM Ca2+, Experiment 3): 3.36 % PfCRTDd2 control | [3H]CQ transport, PfNT1 (3 mM Ca2+, Experiment 4): 3.62 % PfCRTDd2 control | [3H]CQ transport, PfNT1 (5 mM Ca2+, Experiment 1): 3.95 % PfCRTDd2 control | [3H]CQ transport, PfNT1 (5 mM Ca2+, Experiment 2): 3.75 % PfCRTDd2 control | [3H]CQ transport, PfNT1 (5 mM Ca2+, Experiment 3): 3.96 % PfCRTDd2 control | [3H]CQ transport, PfNT1 (5 mM Ca2+, Experiment 4): 3.37 % PfCRTDd2 control
